Measurements from ChEMBL document CHEMBL1144070, “Microbial transformation of sampangine” (1999).
Converted amounts (≈) assume the structure as drawn. The source made the active and inactive calls. The rule behind the calls is not given here.

Legend:
[1] = system: Candida albicans; experiment: Antifungal activity against Candida albicans NIH B311 after 24 hrs by agar well diffusion method; type: functional
[2] = system: Cryptococcus neoformans; experiment: Antifungal activity against Cryptococcus neoformans ATCC 52657 after 48 hrs by agar well diffusion method; type: functional; conditions: ATCC 52657, 48 h
[3] = system: Cryptococcus neoformans; experiment: Antifungal activity against Cryptococcus neoformans infected in Swiss ICR mouse assessed as lethality at 50 mg/kg, ip administered 24 hrs post infection for 12 days; type: functional, organism-based; set-up: dose 50 mg/kg

MIC [2] [µg/mL] | MIC [1] [µg/mL] | Structure (SMILES) | Activity [1] | Activity [3]
0.2 (≈ 0.487 µM) | – | CO[C@H]1[C@H](O)[C@@H](O)[C@H](Oc2c3c4c(ccnc4c4ccccc24)C=CN3)O[C@@H]1CO | inactive | –
0.78 (≈ 1.97 µM) | – | OC[C@H]1O[C@@H](Oc2c3c4c(ccnc4c4ccccc24)C=CN3)[C@H](O)[C@@H](O)[C@@H]1O | inactive | inactive
0.2 (≈ 0.861 µM) | 3.12 (≈ 13.4 µM) | O=C1c2ccccc2-c2nccc3ccnc1c23 [SAMPANGINE] | – | –
